# Source: patent US20230064189A1, “1H-PYRAZOLO[3,4-D]PYRIMIDINE COMPOUNDS USEFUL FOR THE TREATMENT OF PLATINUM-RESISTANT CANCER” (IMPERIAL COLLEGE INNOVATIONS LIMITED, priority 2019, published 2023)
# Where “and” joins values, the source holds several entries; their conditions need not be identical. Equal values may be shown once.
# Assays:
# AKT1 = AKT1 (Homo sapiens, UniProt P31749); assay: AKT1 enzymatic inhibition assay (HTRF KinEASE); type: biochemical; conditions: read-out: AKT1 pIC50 (converted)
# Protocol: (§1) The IC50 values of Example compounds of the invention for AKT1, AKT2 and AKT3 were measured using HTRF (Homogeneous Time Resolved Fluorescence) KinEASE assays (62ST3PEB—1000 tests or 62ST3PEC—20,000 tests) from cisbio.com, according to manufacturer's instructions.
# PEO4 cells = assay: Relative re-sensitisation ratio of apoptosis induction (caspase 3/7 normalised to MTT) with cisplatin; type: cell-based; conditions: compound at 20 μM, triciribine at 25 μM, cisplatin 25 μM, 24 h
# Protocol: Cell viability was determined for different assays (as described in FIGS. 1 and 2, Table 5) in optically clear 96 well plates using the standard 3-(4, 5-dimethylthiazol-2-yl)-2, 5-diphenyl tetrazolium bromide (MTT) assay, which is a colorimetric method for determining the number of metabolically active cells in cytotoxicity assays. MTT is bioreduced by mitochondrial dehydrogenase enzymes into a coloured solid formazan product. MTT reagent (Sigma, UK) was initially prepared by dissolving in PBS at a concentration of 3 mg/ml. Following relevant drug treatments at different time points and cell lines (described in results section and FIGS. 1 and 2), MTT reagent was added to each experimental well at a final concentration of 0.5 mg/ml. After incubation for 3 h at 37° C. 5% CO2, an equal volume of stop solution (10% SDS in 0.01% HCl) was added and formed formazan crystals were allowed to dissolve shaking overnight. The following day, the optical density was read at 570 nm and analysis performed as per each assay type.
# The caspase 3/7 activity of cells following treatment with inhibitor compounds or vehicle (DMSO) was determined using the Caspase-Glo® 3/7 Assay (Catalogue number G8093, Promega, US) according to manufacturer's instructions. Briefly, 10,000 cells per well for PEO1 and PEO4 cell lines or 5000 cells per well for SKOV3 cell line were grown in 96 well plates in a final volume of 50 μl and following relevant drug treatment of cells (example compound±cisplatin, comparative example compound±cisplatin, or vehicle±cisplatin) for 24 hours, an equal volume of Caspase-Glo® Reagent containing a luminogenic substrate for Caspase 3 and Caspase 7 was added i.e. if cells cultured in 50 μl of media, 50 μl of caspase reagent was added. After 1 h incubation at room temperature in the dark, the luminescence of each sample was measured in a plate-reading luminometer (LUMIstar OPTIMA, BMG Labtech, Germany). Caspase 3/7 activity data was normalised to corresponding viability data from MTT and analysis was performed according to each experimental set-up.
# . Apoptosis (caspase 3/7) and viability (MTT) assays were carried out as described for each assay protocols and the phenotypic apoptosis assays above. Relative apoptosis induction was inferred from caspase 3/7 assay values normalised to the standard MTT viability assay values of each corresponding well. […]
# DNA-PK = DNA-PK (Homo sapiens, UniProt P78527); assay: DNA-PK enzymatic inhibition assay (HTRF KinEASE); type: biochemical; conditions: read-out: DNA-PK pIC50 (converted)
# Protocol: The IC50 values of Example compounds of the invention for DNA-PK were measured using the HTRF KinEASE assay as described above.
# AKT2 = AKT2 (Homo sapiens, UniProt P31751); assay: AKT2 enzymatic inhibition assay (HTRF KinEASE); type: biochemical; conditions: read-out: AKT2 pIC50 (converted)
# Protocol: as §1
# AKT3 = AKT3 (Homo sapiens, UniProt Q9Y243); assay: AKT3 enzymatic inhibition assay (HTRF KinEASE); type: biochemical; conditions: read-out: AKT3 pIC50 (converted)
# Protocol: as §1
# Chain of AKT3 (Q9Y243 148-405 limits assumed): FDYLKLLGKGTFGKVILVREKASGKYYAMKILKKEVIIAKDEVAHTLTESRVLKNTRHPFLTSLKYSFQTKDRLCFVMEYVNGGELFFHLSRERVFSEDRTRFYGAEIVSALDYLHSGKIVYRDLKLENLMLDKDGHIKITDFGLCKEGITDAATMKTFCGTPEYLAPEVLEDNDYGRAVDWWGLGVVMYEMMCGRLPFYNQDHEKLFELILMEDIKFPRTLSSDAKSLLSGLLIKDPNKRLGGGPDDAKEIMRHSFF
# Chain of AKT2 (P31751 152-409 limits assumed): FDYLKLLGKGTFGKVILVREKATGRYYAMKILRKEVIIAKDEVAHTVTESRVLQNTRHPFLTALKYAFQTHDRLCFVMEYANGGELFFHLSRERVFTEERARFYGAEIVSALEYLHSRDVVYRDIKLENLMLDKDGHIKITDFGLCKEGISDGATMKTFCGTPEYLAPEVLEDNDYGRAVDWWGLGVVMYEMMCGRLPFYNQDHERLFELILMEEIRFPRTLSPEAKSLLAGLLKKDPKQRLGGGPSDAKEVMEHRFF
# Chain of AKT1 (P31749 150-408 limits assumed): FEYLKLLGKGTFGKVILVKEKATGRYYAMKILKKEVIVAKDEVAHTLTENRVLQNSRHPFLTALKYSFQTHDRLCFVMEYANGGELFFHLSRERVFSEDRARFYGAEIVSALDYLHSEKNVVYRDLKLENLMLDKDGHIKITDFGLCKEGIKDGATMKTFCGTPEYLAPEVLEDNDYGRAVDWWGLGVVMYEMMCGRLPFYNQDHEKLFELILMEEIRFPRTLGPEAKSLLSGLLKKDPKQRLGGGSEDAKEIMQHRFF
IC50 (AKT1),IC50 (DNA-PK),IC50 (AKT2) [nM],IC50 (AKT3) [nM],SMILES,Relative re-sensitisation ratio of apoptosis induction (caspase 3/7) relative to triciribine phosphate (PEO4 cells)
15.1 nM,10.5 nM,34.7,5.25,"CN(C)CCNC(=O)C(c1ccc(Cl)cc1)N1CCN(c2ncnc3[nH]nc(Br)c23)CC1 (single isomer, unassigned; (+)) [Example 3b, (+)-2-(4-(3-bromo-1H-pyrazolo[3,4-d]pyrimidin-4-yl)piperazin-1-yl)-2-(4-chlorophenyl)-N-(2-(dimethylamino)ethyl)acetamide]",1.4
4.47 nM and 1.58 nM,4.9 nM and 10.7 nM,,,"CN(C)CCNC(=O)C(c1ccc(Cl)cc1)N1CCN(c2ncnc3[nH]nc(Br)c23)CC1 (single isomer, unassigned; (-)) [Example 3a, (−)-2-(4-(3-bromo-1H-pyrazolo[3,4-d]pyrimidin-4-yl)piperazin-1-yl)-2-(4-chlorophenyl)-N-(2-(dimethylamino)ethyl)acetamide]",2.7
,,,,"CN(C)CCNC(=O)C(c1ccc(Cl)cc1)N1CCN(c2ncnc3[nH]nc(Br)c23)CC1 (stereo not shown) [Example 3, 2-(4-(3-bromo-1H-pyrazolo[3,4-d]pyrimidin-4-yl)piperazin-1-yl)-2-(4-chlorophenyl)-N-(2-(dimethylamino)ethyl)acetamide]",1.7
1350 nM,141 nM,2240,603,"CN(C)C(=O)C(c1ccc(Cl)cc1)N1CCN(c2ncnc3[nH]nc(Br)c23)CC1 (stereo not shown) [Example 4, 2-(4-(3-bromo-1H-pyrazolo[3,4-d]pyrimidin-4-yl)piperazin-1-yl)-2-(4-chlorophenyl)-N,N-dimethylacetamide]",2.6
12.6 nM,7.08 nM,27.5,7.24,"Cc1n[nH]c2ncnc(N3CCC(C(OCCN(C)C)c4ccc(Cl)cc4)CC3)c12 (stereo not shown) [Example 5, 2-((4-chlorophenyl)(1-(3-methyl-1H-pyrazolo[3,4-d]pyrimidin-4-yl)piperidin-4-yl)methoxy)-N,N-dimethylethan-1-amine]",2.5
1.32 nM,6.17 nM,7.41,0.851,"CCN(CC)CCS(=O)(=O)N(c1ccc(Cl)cc1)C1CCN(c2ncnc3[nH]nc(Br)c23)CC1 [Example 6, N-(1-(3-bromo-1H-pyrazolo[3,4-d]pyrimidin-4-yl)piperidin-4-yl)-N-(4-chlorophenyl)-2-(diethylamino)ethane-1-sulfonamide]",2.3
0.912 nM,2.75 nM,3.63,1.38,"CN(C)CC(c1ccc(Cl)cc1)C1CCN(c2ncnc3[nH]nc(Br)c23)CC1 (stereo not shown) [Example 7, 2-(1-(3-bromo-1H-pyrazolo[3,4-d]pyrimidin-4-yl)piperidin-4-yl)-2-(4-chlorophenyl)-N,N-dimethylethan-1-amine]",2.3
2.57 nM,3.47 nM,6.03,0.955,"CN(C)CCCC(O)(c1ccc(Cl)cc1)C1CCN(c2ncnc3[nH]nc(Br)c23)CC1 (stereo not shown) [Example 8, 1-(1-(3-bromo-1H-pyrazolo[3,4-d]pyrimidin-4-yl)piperidin-4-yl)-1-(4-chlorophenyl)-4-(dimethylamino)butan-1-ol]",1.73
1.2 nM,1.95 nM,2.75,0.676,"CN(C)CCNC(c1ccc(Cl)cc1)C1CCN(c2ncnc3[nH]nc(Br)c23)CC1 (stereo not shown) [Example 9, N^1-((1-(3-bromo-1H-pyrazolo[3,4-d]pyrimidin-4-yl)piperidin-4-yl)(4-chlorophenyl)methyl)-N^2,N^2-dimethylethane-1,2-diamine]",1.5
,,,,"CN(C)CCCOC(c1ccc(Cl)cc1)C1CCN(c2ncnc3[nH]nc(Br)c23)CC1 (stereo not shown) [Example 10, 3-((1-(3-bromo-1H-pyrazolo[3,4-d]pyrimidin-4-yl)piperidin-4-yl)(4-chlorophenyl)methoxy)-N,N-dimethylpropan-1-amine]",1.5
0.912 nM,1.7 nM,1.66,0.316,"CN(C)CC(c1ccc(Cl)cc1)C1CCN(c2ncnc3[nH]nc(C(F)(F)F)c23)CC1 (stereo not shown) [Example 11, 2-(4-chlorophenyl)-N,N-dimethyl-2-(1-(3-(trifluoromethyl)-1H-pyrazolo[3,4-d]pyrimidin-4-yl)piperidin-4-yl)ethan-1-amine]",1.3
7.08 nM,1.86 nM,7.24,2.95,"CN(C)CC(c1ccc(Cl)cc1)N1CCN(c2ncnc3[nH]nc(C(F)(F)F)c23)CC1 (stereo not shown) [Example 13, 2-(4-chlorophenyl)-N,N-dimethyl-2-(4-(3-(trifluoromethyl)-1H-pyrazolo[3,4-d]pyrimidin-4-yl)piperazin-1-yl)ethanamine]",1.2
2.51 nM,4.68 nM,6.46,1.29,"CN(C)CCCCC(O)(c1ccc(Cl)cc1)C1CCN(c2ncnc3[nH]nc(Br)c23)CC1 (stereo not shown) [Example 14, 1-(1-(3-bromo-1H-pyrazolo[3,4-d]pyrimidin-4-yl)piperidin-4-yl)-1-(4-chlorophenyl)-5-(dimethylamino)pentan-1-ol]",1.2
933 nM,12 nM,490,158,"CN(C)CCCC(=C1CCN(c2ncnc3[nH]nc(C(F)(F)F)c23)CC1)c1ccc(Cl)cc1 [Example 15, 4-(4-chlorophenyl)-N,N-dimethyl-4-(1-(3-(trifluoromethyl)-1H-pyrazolo[3,4-d]pyrimidin-4-yl)piperidin-4-ylidene)butan-1-amine]",1.1
,8.51 nM,170,209,"COc1ccc(O)c(C(=O)c2ccc(C(=O)N[C@@H]3CCCNC[C@H]3NC(=O)c3ccncc3)cc2)c1F [Roche comp-4, N-{(3R,4R)-4-[4-(2-fluoro-6-hydroxy-3-methoxy-benzoyl)-benzoylamino]-azepan-3-yl}-isonicotinamide, reference compound]",
,,,,"CN1N=C(N)c2cn([C@@H]3O[C@H](COP(=O)(O)O)[C@@H](O)[C@H]3O)c3ncnc1c23 [Triciribine phosphate, ((2R,3S,4R,5R)-5-(3-amino-5-methyl-1,4,5,6,8-pentaazaacenaphthylen-1(5H)-yl)-3,4-dihydroxytetrahydrofuran-2-yl)methyl dihydrogen phosphate, reference compound]",1.0
